Counter-ions that a name gives are not always drawn.
Biological target: T1, human Cav2.2 α (α1B) subunit, along with the human β3 and α2δ1 auxiliary subunits (Homo sapiens, UniProt Q00975)
T1 construct: expressed in transfected cells
Test: hCav2.2 assay, IonWorks planar array electrophysiology in stable HEK293 cell line
Format: cell-based
Conditions: inhibition by 50% of current elicited by the 1st depolarising pulse; HEK293 cells; read-out: tonic pIC50 (converted)
Procedure: Compounds as defined in the first or second aspect may be tested for in vitro biological activity in the hCav2.2 assay in accordance with the following studies:
Stable cell lines expressing the human Cav2.2 α (α1B) subunit, along with the human β3 and α2δ1 auxiliary subunits were created following sequential transfection and selection of human embryonic kidney (HEK293) cells. HEK293 cells were cultured in Dulbecco's modified Eagles media/F12 media (Invitrogen, Cat #041-95750V) containing 10% fetal bovine serum, with added L-glutamine (2 mM; Invitrogen, Cat #25030-024) and non-essential amino acids (5%; Invitrogen, Cat #11140-035). Initially HEK293 cells were transfected with two plasmid vectors for expression of the hCav2.2 α subunit (pCIN5-hCav2.2 which carries a neomycin resistance marker) and the hCav β3 subunit (pCIH-hCav β3 which carries a hygromycin resistance marker). Clonal cell lines were isolated following selection in media supplemented with 0.4 mg ml^−1 Geneticin G418 (Invitrogen, Cat #10131-027) and 0.1 mg ml^−1 hygromycin (Invitrogen, Cat #10687-010). These clonal cell lines were assessed for Cav2.2 α/β3-mediated current expression using the IonWorks planar array electrophysiology technology (described below). A clonal line was identified that gave a reasonable level of functional Cav2.2 α/β3 current expression. This cell line was transfected with a plasmid vector for expression of the human α2δ1 subunit (pCIP-α2δ1 which carries a puromycin resistance marker) and clonal cell lines isolated following selection in media containing 0.62 μg ml^−1 puromycin (Sigma, Cat #P-7255), in addition to 0.4 mg ml^−1 Geneticin G418 and 0.1 mg ml^−1 hygromycin. Several cell lines were identified that gave robust levels of Cav2.2 α/β3/α2δ1-mediated current expression and one of these was selected for compound profiling. Expression of all three subunits within this cell line was continuously maintained by the inclusion of G418 (0.4 mg ml^−1), hygromycin (0.1 mg ml^−1) and puromycin (0.62 μg ml^−1). Cells were maintained at 37° C. in a humidified environment containing 5% CO2 in air. Cells were liberated from the T175 culture flasks for passage and harvesting using TrpLE (Invitrogen, Cat #12604-013).
Cells were grown to 30-60% confluence in T175 flasks and maintained at 30° C. for 24 hrs prior to recording. Cells were lifted by removing the growth media, washing with Ca^2+ free PBS (Invitrogen, Cat #14190-094) and incubating with 3 ml of warmed (37° C.) TrpLE (Invitrogen, Cat #12604-013) for 6 minutes. Lifted cells were suspended in 10 ml of extracellular buffer. Cell suspension was then placed into a 15 ml tube and centrifuged for 2 minutes at 700 rpm. After centrifugation, the supernatant was removed and the cell pellet was resuspended in 4.5 ml of extracellular solution.
Currents were recorded at room temperature (21-23° C.) using the IonWorks planar array electrophysiology technology (Molecular Devices Corp.). Stimulation protocols and data acquisition were carried out using a microcomputer (Dell Pentium 4). In order to determine planar electrode hole resistances (Rp), a 10 mV, 160 ms potential difference was applied across each hole. These measurements were performed before cell addition. After cell addition a seal test was performed prior to antibiotic (amphotericin) circulation to achieve intracellular access. Leak subtraction was conducted in all experiments by applying a 160 ms hyperpolarizing (10 mV) prepulse 200 ms before the test pulses to measure leak conductance. Test pulses stepping from the holding potential (VH) of −90 mV to +10 mV were applied for 20 ms and repeated 10 times at a frequency of 10 Hz. In all experiments, the test pulse protocol was performed in the absence (pre-read) and presence (post-read) of a compound. Pre- and post-reads were separated by a compound addition followed by a 3-3.5 min incubation. […]

T1 sequence (Q00975 whole entry): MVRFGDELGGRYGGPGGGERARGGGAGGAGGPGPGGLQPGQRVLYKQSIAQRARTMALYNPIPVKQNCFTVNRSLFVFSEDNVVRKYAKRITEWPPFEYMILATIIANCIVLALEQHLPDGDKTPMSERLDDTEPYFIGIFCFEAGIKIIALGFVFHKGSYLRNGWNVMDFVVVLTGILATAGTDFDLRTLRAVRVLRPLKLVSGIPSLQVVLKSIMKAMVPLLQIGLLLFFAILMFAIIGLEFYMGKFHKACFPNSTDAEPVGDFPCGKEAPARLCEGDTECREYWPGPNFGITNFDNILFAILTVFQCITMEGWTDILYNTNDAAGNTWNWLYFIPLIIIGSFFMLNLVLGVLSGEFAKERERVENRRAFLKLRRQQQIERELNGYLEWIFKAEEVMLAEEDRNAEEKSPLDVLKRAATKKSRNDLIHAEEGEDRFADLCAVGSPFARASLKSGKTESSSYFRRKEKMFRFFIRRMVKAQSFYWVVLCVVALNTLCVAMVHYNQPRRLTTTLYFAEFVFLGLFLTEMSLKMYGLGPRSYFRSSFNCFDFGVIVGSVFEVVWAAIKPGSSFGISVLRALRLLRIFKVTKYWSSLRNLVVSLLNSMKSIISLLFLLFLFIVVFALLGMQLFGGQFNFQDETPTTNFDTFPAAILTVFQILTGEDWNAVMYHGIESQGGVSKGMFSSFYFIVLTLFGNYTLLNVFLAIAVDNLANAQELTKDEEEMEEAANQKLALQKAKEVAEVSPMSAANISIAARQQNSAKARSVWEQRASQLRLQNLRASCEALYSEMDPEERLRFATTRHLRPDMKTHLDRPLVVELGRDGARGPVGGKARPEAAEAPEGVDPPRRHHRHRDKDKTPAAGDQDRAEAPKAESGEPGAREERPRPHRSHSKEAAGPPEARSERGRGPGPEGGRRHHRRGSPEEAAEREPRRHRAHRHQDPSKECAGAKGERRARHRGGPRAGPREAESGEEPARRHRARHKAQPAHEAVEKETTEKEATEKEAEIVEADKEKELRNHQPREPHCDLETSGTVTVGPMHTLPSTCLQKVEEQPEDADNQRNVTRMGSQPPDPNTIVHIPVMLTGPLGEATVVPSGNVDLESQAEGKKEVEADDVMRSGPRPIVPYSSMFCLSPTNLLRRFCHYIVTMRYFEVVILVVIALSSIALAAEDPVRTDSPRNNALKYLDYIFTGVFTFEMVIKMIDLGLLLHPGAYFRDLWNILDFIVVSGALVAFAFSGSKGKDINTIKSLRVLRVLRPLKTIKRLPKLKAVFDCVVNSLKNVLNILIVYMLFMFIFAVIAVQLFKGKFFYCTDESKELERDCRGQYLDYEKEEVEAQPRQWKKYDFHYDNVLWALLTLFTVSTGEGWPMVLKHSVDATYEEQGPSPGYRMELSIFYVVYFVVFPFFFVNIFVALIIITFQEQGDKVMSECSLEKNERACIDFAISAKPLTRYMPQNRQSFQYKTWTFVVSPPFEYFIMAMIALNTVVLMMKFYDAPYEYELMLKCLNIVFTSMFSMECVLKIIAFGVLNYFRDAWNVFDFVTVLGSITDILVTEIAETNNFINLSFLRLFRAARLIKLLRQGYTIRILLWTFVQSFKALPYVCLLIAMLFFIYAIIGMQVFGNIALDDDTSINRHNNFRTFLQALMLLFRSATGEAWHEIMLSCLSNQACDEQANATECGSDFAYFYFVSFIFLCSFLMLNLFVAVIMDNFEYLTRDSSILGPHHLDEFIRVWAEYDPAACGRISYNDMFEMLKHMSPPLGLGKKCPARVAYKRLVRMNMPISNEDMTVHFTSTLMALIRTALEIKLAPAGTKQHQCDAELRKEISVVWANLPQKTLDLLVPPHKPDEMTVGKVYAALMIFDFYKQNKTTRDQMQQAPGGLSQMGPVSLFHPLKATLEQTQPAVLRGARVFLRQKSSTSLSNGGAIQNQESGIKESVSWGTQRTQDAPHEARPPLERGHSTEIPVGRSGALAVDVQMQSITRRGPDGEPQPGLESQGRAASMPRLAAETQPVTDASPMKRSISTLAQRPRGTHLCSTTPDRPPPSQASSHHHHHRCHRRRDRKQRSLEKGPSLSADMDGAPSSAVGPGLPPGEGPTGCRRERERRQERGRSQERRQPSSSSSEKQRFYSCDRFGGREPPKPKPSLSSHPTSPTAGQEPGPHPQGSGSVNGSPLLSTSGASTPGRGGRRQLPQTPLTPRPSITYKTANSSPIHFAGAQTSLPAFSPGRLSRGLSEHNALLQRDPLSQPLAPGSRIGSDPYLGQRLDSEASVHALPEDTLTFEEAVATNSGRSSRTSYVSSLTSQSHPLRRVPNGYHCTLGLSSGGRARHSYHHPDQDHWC
T1 sequence (P54284 whole entry partner): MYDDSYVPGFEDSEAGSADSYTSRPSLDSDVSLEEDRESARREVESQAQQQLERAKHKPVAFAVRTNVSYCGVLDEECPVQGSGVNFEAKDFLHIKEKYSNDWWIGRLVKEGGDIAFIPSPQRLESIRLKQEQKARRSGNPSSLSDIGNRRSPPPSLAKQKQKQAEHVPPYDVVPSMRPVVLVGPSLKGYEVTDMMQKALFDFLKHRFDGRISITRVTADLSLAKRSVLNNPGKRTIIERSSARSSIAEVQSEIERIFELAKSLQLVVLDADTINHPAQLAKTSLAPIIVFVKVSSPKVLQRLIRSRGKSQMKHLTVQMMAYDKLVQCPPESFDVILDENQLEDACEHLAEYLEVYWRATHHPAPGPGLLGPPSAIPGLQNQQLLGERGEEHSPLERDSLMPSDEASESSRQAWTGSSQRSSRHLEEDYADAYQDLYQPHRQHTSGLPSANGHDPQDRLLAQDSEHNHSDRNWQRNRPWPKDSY
T1 sequence (P54289 25-946 partner limits assumed): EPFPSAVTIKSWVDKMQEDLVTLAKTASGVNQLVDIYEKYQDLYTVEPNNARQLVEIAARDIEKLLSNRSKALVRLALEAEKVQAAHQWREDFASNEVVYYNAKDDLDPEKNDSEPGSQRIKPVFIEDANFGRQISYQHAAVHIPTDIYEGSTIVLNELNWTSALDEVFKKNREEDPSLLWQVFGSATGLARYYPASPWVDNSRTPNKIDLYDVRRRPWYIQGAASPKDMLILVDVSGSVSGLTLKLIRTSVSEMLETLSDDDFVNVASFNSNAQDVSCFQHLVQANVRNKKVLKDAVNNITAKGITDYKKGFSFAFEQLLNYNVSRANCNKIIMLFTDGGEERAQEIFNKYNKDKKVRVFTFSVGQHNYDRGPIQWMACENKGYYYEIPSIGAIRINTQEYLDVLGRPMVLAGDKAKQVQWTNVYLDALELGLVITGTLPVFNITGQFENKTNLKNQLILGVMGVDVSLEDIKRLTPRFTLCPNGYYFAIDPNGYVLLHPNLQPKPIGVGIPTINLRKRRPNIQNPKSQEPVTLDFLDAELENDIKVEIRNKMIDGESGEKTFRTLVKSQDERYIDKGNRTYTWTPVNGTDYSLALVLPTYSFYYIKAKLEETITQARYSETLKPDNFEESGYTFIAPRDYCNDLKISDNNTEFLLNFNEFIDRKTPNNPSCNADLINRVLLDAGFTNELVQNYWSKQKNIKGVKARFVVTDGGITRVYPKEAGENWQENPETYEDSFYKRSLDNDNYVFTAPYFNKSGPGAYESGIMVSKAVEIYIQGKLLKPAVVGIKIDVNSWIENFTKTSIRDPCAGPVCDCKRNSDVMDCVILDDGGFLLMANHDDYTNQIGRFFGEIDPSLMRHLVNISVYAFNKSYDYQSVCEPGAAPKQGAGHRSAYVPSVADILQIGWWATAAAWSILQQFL
T1 sequence (P54289 947-1103 partner limits assumed): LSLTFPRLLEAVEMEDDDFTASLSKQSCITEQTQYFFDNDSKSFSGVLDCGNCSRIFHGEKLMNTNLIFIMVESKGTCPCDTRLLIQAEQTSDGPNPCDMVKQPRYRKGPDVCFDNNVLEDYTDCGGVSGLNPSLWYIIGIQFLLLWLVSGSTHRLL

Row | Compound | IC50 [µM]
1 | O=S1(=O)CCC2CN(Cc3nnnn3-c3ccc(C(F)(F)F)cc3)CCN21 (centres unmarked) [Compound 78, 5-({1-[4-(Trifluoromethyl)phenyl]-1H-tetrazol-5-yl}methyl)hexahydro-2H-isothiazole[2,3-a]pyrazine 1,1-dioxide] | ≤ 31.6
2 | O=S1(=O)CCC2CN(Cc3nnnn3-c3cccc(C(F)(F)F)c3)CCN21 (centres unmarked) [Compound 79, 5-({1-[3-(Trifluoromethyl)phenyl]-1H-tetrazol-5-yl}methyl)hexahydro-2H-isothiazolo[2,3-a]pyrazine 1,1-dioxide] | ≤ 31.6
3 | C[C@@H]1C(=O)N(C)CCN1Cc1nnnn1-c1ccc(C(F)(F)F)cc1 [Compound 89, (3R)-1,3-Dimethyl-4-({1-[4-(trifluoromethyl)phenyl]-1H-tetrazol-5-yl}methyl)-2-piperazinone[]] | ≤ 10
4 | CC(C)N1CCN(Cc2nnnn2-c2ccc(C(F)(F)F)cc2)[C@H](C)C1=O [Compound 90, (3R)-3-Methyl-1-(1-methylethyl)-4-({1-[4-(trifluoromethyl)phenyl]-1H-tetrazol-5-yl}methyl)-2-piperazinone] | ≤ 10
5 | N#Cc1ccc(-n2nnnc2CN2CCNCC2)cc1C(F)(F)F [Compound 101, 4-[5-(1-piperazinylmethyl)-1H-tetrazol-1-yl]-2-(trifluoromethyl)benzonitrile] | ≤ 10
6 | CC(=O)N1CCN(Cc2nnnn2-c2ccc(C#N)c(C(F)(F)F)c2)CC1 [Compound 102, 4-{5-[(4-acetyl-1-piperazinyl)methyl]-1H-tetrazol-1-yl}-2-(trifluoromethyl)benzonitrile] | ≤ 3.16
7 | N#Cc1ccc(-n2nnnc2CN2[C@@H]3CC[C@H]2COC3)cc1C(F)(F)F [Compound 103, 4-[5-(3-oxa-8-azabicyclo[3.2.1]oct-8-ylmethyl)-1H-tetrazol-1-yl]-2-(trifluoromethyl)benzonitrile hydrochloride] | ≤ 10
8 | C[C@@H]1CN(S(C)(=O)=O)C[C@H](C)N1Cc1nnnn1-c1ccc(C#N)c(C(F)(F)F)c1 [Compound 107, 4-(5-{[cis-2,6-Dimethyl-4-(methylsulfonyl)-1-piperazinyl]methyl}-1H-tetrazol-1-yl)-2-(trifluoromethyl)benzonitrile] | ≤ 3.16
9 | Cc1c(-n2nnnc2CN2C[C@@H]3C[C@H]2CO3)ccc(C#N)c1C(F)(F)F [Compound 129, 3-methyl-4-{5-[(1S,4S)-2-oxa-5-azabicyclo[2.2.1]hept-5-ylmethyl]-1H-tetrazol-1-yl}-2-(trifluoromethyl)bbenzonitrile hydrochloride] | ≤ 31.6
10 | CC(C)C(=O)N1CCN(Cc2nnnn2-c2ccc(C#N)c(C(F)(F)F)c2)CC1 [Compound 146, 4-(5-{[4-(2-methylpropanoyl)-1-piperazinyl]methyl}-1H-tetrazol-1-yl)-2-(trifluoromethyl)benzonitrile] | ≤ 3.16

More lines, now with the values ahead:

Row | IC50 [µM] | Compound
11 | ≤ 31.6 | CCN1CCN(Cc2nnnn2-c2cccc(C(F)(F)F)c2)[C@H](C)C1 [Compound 92, (2R)-4-Ethyl-2-methyl,-1-({1-[3-(trifluoromethyl)phenyl]-1H-tetrazol-5-yl}methyl)piperazine hydrochloride]
12 | ≤ 31.6 | CC(C)N1CCN(Cc2nnnn2-c2cccc(C(F)(F)F)c2)[C@H](C)C1 [Compound 94, (2R)-2-Methyl-4-(1-methylethyl)-1-({1-[3-(trifluoromethyl)phenyl]-1H-tetrazol-5-yl}methyl)piperazine hydrochloride]
13 | ≤ 31.6 | CC(C)N1CCN(Cc2nnnn2-c2ccc(C(F)(F)F)cc2)CC1 [Compound 96, 1-(1-Methylethyl)-4-({1-[4-(trifluoromethyl)phenyl]-1H-tetrazol-5-yl}methyl)piperazine hydrochloride]
14 | ≤ 31.6 | CN1C[C@@H]2C[C@H]1CN2Cc1nnnn1-c1ccc(C(F)(F)F)cc1 [Compound 98, (1S,4S)-2-Methyl-5-({1-[4-(trifluoromethyl)phenyl]-1H-tetrazol-5-yl}methyl)-2,5-diazabicyclo[2.2.1]heptane hydrochloride]
15 | ≤ 3.16 | CCCS(=O)(=O)N1CCN(Cc2nnnn2-c2ccc(C#N)c(C(F)(F)F)c2)CC1 [Compound 106, 4-(5-{[4-(Propylsulfonyl)-1-piperazinyl]methyl}-1H-tetrazol-1-yl)-2-(trifluoromethyl)benzonitrile]
16 | ≤ 10 | FC(F)(F)c1cc(-n2nnnc2CN2C[C@@H]3C[C@H]2CO3)ccc1Cl [Compound 110, (1S,4S)-5-({1-[4-chloro-3-(trifluoromethyl)phenyl]-1H-tetrazol-5-yl}methyl)-2-oxa-5-azabicyclo[2.2.1]heptane hydrochloride]
17 | ≤ 3.16 | FC(F)(F)c1cc(-n2nnnc2CN2CCOCC2)ccc1Cl [Compound 111, 4-({1-[4-chloro-3-(trifluoromethyl)phenyl]-1H-tetrazol-5-yl}methyl)morpholine]
18 | ≤ 31.6 | CCS(=O)(=O)N1CCN(Cc2nnnn2-c2ccc(C#N)cc2)CC1 [Compound 118, 4-(5-{[4-(ethylsulfonyl)-1-piperazinyl]methyl}-1H-tetrazol-1-yl)benzonitrile]
19 | ≤ 3.16 | CCS(=O)(=O)N1CCN(Cc2nnnn2-c2ccc(C#N)c(C(F)(F)F)c2)CC1 [Compound 121, 4-(5-{[4-(ethylsulfonyl)-1-piperazinyl]methyl}-1H-tetrazol-1-yl)-2-(trifluoromethyl)benzonitrile]
20 | ≤ 3.16 | CC(C)S(=O)(=O)N1CCN(Cc2nnnn2-c2ccc(C#N)c(C(F)(F)F)c2)CC1 [Compound 122, 4-[5-({4-[(1-methylethyl)sulfonyl]-1-piperazinyl}methyl)-1H-tetrazol-1-yl]-2-(trifluoromethyl)benzonitrile]
21 | ≤ 31.6 | FS(F)(F)(F)(F)c1ccc(-n2nnnc2CN2C[C@@H]3C[C@H]2CO3)cc1 [Compound 127, (1S,4S)-5-({1-[4-(pentafluoro-λ^6-sulfanyl)phenyl]-1H-tetrazol-5-yl}methyl)-2-oxa-5-azabicyclo[2.2.1]heptane]
22 | ≤ 3.16 | CCC(=O)N1CCN(Cc2nnnn2-c2ccc(C#N)c(C(F)(F)F)c2)CC1 [Compound 145, 4-{5-[(4-propanoyl-1-piperazinyl)methyl]-1H-tetrazol-1-yl}-2-(trifluoromethyl)benzonitrile]
23 | ≤ 3.16 | CC(C)N1CCC2(CCN(Cc3nnnn3-c3ccc(C#N)c(C(F)(F)F)c3)CC2)C1 [Compound 147, 4-(5-{[2-(1-methylethyl)-2,8-diazaspiro[4.5]dec-8-yl]methyl}-1H-tetrazol-1-yl)-2-(trifluoromethyl)benzonitrile dihydrochloride]

Source: US9750719B2, “Tetrazole compounds as calcium channel blockers” (CONVERGENCE PHARMACEUTICALS LIMITED, priority 2010, dated 2017)
